In assay [1] the test system is MUC2-containing intestinal tissue (jejunal). The assay can be described thus: Ex vivo fluorescent binding to small intestine tissue. The arrangement: species or system porcine. Particulars: MUC2-selective peptides to small intestine; for Overall nanoparticle “score”: scaled between free AF647 (0) and WGA-AF647 (1), mean across trials n = 3; for Selectivity: score for MUC2 tissue / sum of scores for all mucins, n = 3. The text has this:
After identifying the peptide hits for each mucin, we tested their binding in an ex vivo setting (Figure S1), evaluating their interaction with mucin-containing porcine tissue and semiquantitatively representing it through fluorescent imaging (Figure 3a). The cyclic peptides were synthesized and conjugated to a fluorophore, Alexa Fluor 647 (AF647), at the N-terminus to allow fluorescent imaging to be used to semiquantitatively measure the peptides’ ex vivo tissue binding, compared to free AF647 and AF647 conjugated to wheat germ agglutinin (WGA), a known lectin for glycoproteins.[40] […] Porcine GI tissue was used due to its similarity in mucin expression compared to human GI tissue and its capacity to source large surface areas of tissue for experiments.[41],[42] Representative IVIS images are shown in Figure 3b-e, where the first four columns represent the four identified peptides (M2.1–M2.4 in Figure 3b,c, M5.1–M5.4 in Figure 3d,e), the fifth column represents WGA-AF647, and the sixth column represents AF647. The “score” results for the peptide ligands are presented in Figure 3f,g for the mucins of interest, with Tables S2–S5 and Figure S3 detailing results for the other tissues (the equation for calculating the “score” is found in the Materials and Methodssection). […] We also examined selectivity by incubating peptides on nontarget tissues. Figure 3h,i depicts the “selectivity” results for the MUC2-selective and MUC5AC-selective peptides, respectively. Selectivity was calculated by determining the ratio of the “score” for a particular mucin to the sum of the “scores” for all mucins (see the Materials and Methods section for the equation used).
The top-performing hits from phage display were tested on ex vivo segments of porcine mucin-containing tissues (jejunal, stomach, and esophageal tissues) obtained from local abattoirs or laboratory-maintained pigs. Tissue was used either immediately after acquisition or after storage at −80 °C; tissue was used at most 1 week after acquisition and storage at −80 °C. After acquisition and equilibration to room temperature, the tissue was washed twice with 25 mL (each) of cold 1× PBS to remove undigested food and other debris. After washing and cleaning, the tissue was mounted between two magnetic plates with holes corresponding to a 48-well plate, as previously described,[72] such that the luminal side of the tissue was facing up (Figure S1). After the tissue was mounted, the amount of peptide/protein corresponding to 40 μg of AF647 was suspended in 200 μL of 1× PBS and added to the wells created by the magnetic plates. This was done 3× for each formulation to perform the experiment in triplicate. In addition, plain 1× PBS was added to one well to serve as the background measurement. After the peptides were added, the plate setup was covered with aluminum foil and allowed to incubate for 1 h at room temperature with gentle agitation (50 rpm). After incubation, the nonbinding peptides were removed by pouring out the solutions onto a clean paper towel, and the setup was washed three times by adding 200 μL of 1× PBS to each well and gently agitating the setup for 30 s before removing the washing solution. After washing was complete, fluorescence imaging was performed using an IVIS Spectrum fluorescent imaging system (PerkinElmer), with an automatically calculated exposure time (usually ∼1 s), a 20 cm × 20 cm field of view, and an excitation/emission of 640/680 nm, respectively. The imaging results were analyzed using Living Image software to calculate the total fluorescence intensity for each well, and the results for each hit or control were averaged across different wells. The negative control used was unconjugated AF647, while the positive control was WGA-AF647, since WGA is a known lectin that binds glycoproteins.
To better account for tissue-to-tissue variability, the results for each trial were reported as scores rather than using the raw fluorescence intensity. […]

In assay [2] the target is MUC2 (Homo sapiens, UniProt Q02817). The assay can be described thus: Phage ELISA on MUC2. It is filed as binding. The conditions noted are these: phage clones displaying the peptide, 10^7 PFU/μL, MUC2-coated plate, anti-M13/HRP, TMB, 450 nm, blank subtracted, three wells; vs random library and insertless phage. The text has this: We next sought to validate the binding efficiency of these identified phage clones. We tested phage clones displaying peptides M2.1, M2.2, M2.3, and M2.4 for binding to MUC2, and phage clones displaying peptides M5.1, M5.2, M5.3, and M5.4 for binding to MUC5AC. We utilized a bacteriophage enzyme-linked immunosorbent assay to test the binding of the peptide hits to the specific target mucins, MUC2 and MUC5AC (Figure 2d). The spectrophotometer reported absorbance values at 450 nm. The intensity of the absorbance signal is proportional to the amount of peptide-mucin binding present in each sample. The negative controls (library samples and insertless samples) served as references for nonspecific binding.
First, mucin was coated onto the surface of a plastic plate overnight using the same process as that performed for the original phage display. The next morning, three wells of each phage clone were prepared, with each phage solution having a titer of 10^7 PFU/μL to ensure a fair comparison between the clones. […]
However, instead of eluting the bound phage, 100 μL of 1:2000 anti-M13/HRP mouse monoclonal antibody was added to each well, and the antibody was allowed to incubate with the wells for 30 min. […] The resulting solutions were analyzed by absorbance spectroscopy at a wavelength of 450 nm to determine the relative amount of phage present in each well.
(In an ELISA, binding on a coated surface is turned into a signal by an enzyme label.)

Results on two sequences are retold here after paper PMC12020424, “Identification and Validation of Cyclic Peptides with Mucin-Selective, Location-Specific Binding in the Gastrointestinal Tract” (ACS Nano, 2025).

Bridge positions count the residues as written; N and C are the ends. Ends that are not written are not given here.

On to “CAKHRIMLC (disulfide 1-9 (inferred)) [Peptide M2.1, CX7C cyclic peptide hit for MUC2; AF647 conjugated at N-terminus in ex vivo tests]”, for which, in assay [1], the “Overall nanoparticle “score”” value is 0.550 and the Selectivity was found to be 0.298. Moreover, the “phage ELISA absorbance vs negative controls” value in assay [2] is listed as “significantly higher absorbances than the two negative controls”.
Taken in the same sequence, the figures for “CTDKASSSC (disulfide 1-9 (inferred)) [Peptide M2.2, CX7C cyclic peptide hit for MUC2]” were 0.243, 0.396 and “significantly higher absorbances than the two negative controls”.
